Measurements from PubChem BioAssay AID2060600 (Molecular Pharmacology Branch, DTP, NCI, 2025).
Values joined by “and” are separate entries in the source; they are usually repeats but may differ in a detail not shown here. Identical values can stand only once.

System: 996289-038-R-J1-PDC complex spheroid viability
Assay: Anticancer human tumor 996289-038-R-J1-PDC patient-derived colon adenocarcinoma cell line growth inhibition [CLK]
Conditions: for viability, T/C: stronger effect = lower value
Source text: A high-throughput screen of multi-cell type tumor spheroids was designed to identify active combinations of […] and targeted small molecules. Complex spheroids include a stromal component modeled by human endothelial cells (HUVEC) and fibroblasts modeled by human mesenchymal stem cells (MSCs). The concentration ranges selected for each drug and investigational agent were based upon clinically achievable concentrations if the clinical Cmax of the agent was known.
Compounds. The drugs and investigational agents: cirtuvivint (SM08502; NSC835563), CC-671 (NSC850746), vemurafenib (NSC761431), tapotoclax (NSC804041), sotorasib (NSC818433), adagrasib (NSC831453), MRTX-1133 (NSC836407), BAY2416964 (NSC825713), copanlisib (NSC816437), inavolisib (NSC800729), abemaciclib (NSC768073), osimertinib (NSC779217), entinostat (NSC756642), eltanexor (KPT-8602, NSC794443), venetoclax (NSC766270), ceralasertib (NSC777638), bortezomib (NSC756655), olaparib (NSC753686), talazoparib (NSC767125), alisertib (NSC759677), peposertib (NSC802822), gemcitabine (NSC613327), 5-fluorouracil (NSC19893), SN-38 (NSC673596), oxaliplatin (NSC266046), paclitaxel (NSC125973), and doxorubicin (NSC123127), were obtained from the National Cancer Institute (NCI) Developmental Therapeutics Program Chemical Repository. The FDA-approved anticancer drug set is available from the Developmental Therapeutics Program at https://dtp.cancer.gov/organization/dscb/obtaining/available plates.htm. […] The stock solutions were prepared in dimethyl sulfoxide (DMSO, Sigma-Aldrich, St. Louis, MO, cat. D2650), except for the platinum complexes which were prepared in saline (Quality Biological, Gaithersburg, MD, cat. 114-055-101), at 800-fold the tested concentration and stored at -70 degrees C prior to their use. All drugs and investigational agents were tested over a range starting from a high concentration at or near the clinical Cmax and decreasing in half-log increments. If the clinical Cmax for an agent had not been determined, the highest concentration tested was 10 microM.
Cell Culture. All cells were maintained in an incubator at 37 degrees C and 5% CO2 with 95% humidity. The PDC lines were cultured according to standard operating procedures established by the NCI PDMR. Briefly, all PDCs were thawed and cultured in Matrigel-coated flasks prepared with a working solution of 1X Ham's F-12 nutrient mix, without supplementation (Invitrogen, Waltham, MA, cat. 11765054), 100 U/mL penicillin-streptomycin (Invitrogen, cat. 15140122), and 2.5% Matrigel (Corning Inc., Corning, NY, cat. 354248) for the first three passages. The 947758-054-R-J2-PDC line was cultured in 6B/Colon 1A media, which includes advanced DMEM/F-12 (Thermo Fisher Scientific, cat. 12634028), 10 mM HEPES (Thermo Fisher Scientific, cat. 15630080), 1X GlutaMAX supplement (Thermo Fisher Scientific, cat. 35050061), 0.1 mg/mL primocin (InvivoGen, cat. ant-pm-2), 10% defined fetal bovine serum, heat inactivated (HyClone Laboratories Inc., cat. SH30070.03HI), 1.25 mM N-Acetyl-L-cysteine (Sigma-Aldrich, cat. A9165), 10 mM nicotinamide (Sigma-Aldrich, cat. N0636), 1X B-27 supplement (Thermo Fisher Scientific, cat. 17504044), 1X N-2 supplement (Thermo Fisher Scientific, cat. 17502048), and 10 microM Y-27632 dihydrochloride (Tocris Bioscience, cat. 1254). The 876862-298-R-J1-PDC was cultured in 6E media, which includes all 6B/Colon 1A media components plus 50% L-WRN conditioned media (ATCC, cat. CRL-3276), 50 ng/mL recombinant human EGF recombinant protein (hEGF; Thermo Fisher Scientific, cat. PHG0311), 10 ng/mL recombinant human fibroblast growth factor 10 (hGFG-10; PeproTech, cat. 100-26), 1 ng/mL recombinant human fibroblast growth factor 2 (hFGF-2; PeproTech, cat. 100-18B), and 1 µM prostaglandin E2 (PGE2; Tocris, cat. 2296). The 227483-062-R1-J1-PDC line was cultured in Panc media, containing all 6E components except hFGF-2, with the addition of 500 nM SB-431542 (Selleckchem, cat. S1067) and 10 nM gastrin (Tocris, cat. 3006). […]
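Note: spheroids exposed to the agents for 7 days before readout.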

C=C(F)C(=O)N1CCN(c2nc(OCC3CCCN3C)nc3c2CCN(c2cccc4cccc(Cl)c24)C3)CC1CC#N (stereo unspecified)
viability, T/C (compound 0.0316 µM): 100% and 113%
viability, T/C (compound 0.1 µM): 91.7% and 107%
viability, T/C (compound 0.316 µM): 100% and 101%
viability, T/C (compound 1 µM): 108% and 101%
viability, T/C (compound 3.16 µM): 78.5% and 76%
viability, T/C (compound 10 µM): 1.09% and 1.7%
IC50 (curve of compound): 4830 nM and 4710 nM

C=CC(=O)N1CCN(c2nc(=O)n(-c3c(C)ccnc3C(C)C)c3nc(-c4c(O)cccc4F)c(F)cc23)C(C)C1 (stereo unspecified)
viability, T/C (compound 0.0316 µM): 97.5% and 115%
viability, T/C (compound 0.1 µM): 85.3% and 98%
viability, T/C (compound 0.316 µM): 109% and 101%
viability, T/C (compound 1 µM): 112% and 114%
viability, T/C (compound 3.16 µM): 124% and 117%
viability, T/C (compound 10 µM): 103% and 116%
IC50 (curve of compound): > 10000 nM

C=CC(=O)Nc1cc(Nc2nccc(-c3cn(C)c4ccccc34)n2)c(OC)cc1N(C)CCN(C)C
viability, T/C (compound 0.000949 µM): 99.1% and 105%
viability, T/C (compound 0.003 µM): 106% and 96.1%
viability, T/C (compound 0.00949 µM): 101% and 98.5%
viability, T/C (compound 0.03 µM): 92.6% and 93.1%
viability, T/C (compound 0.0949 µM): 93% and 92%
viability, T/C (compound 0.3 µM): 81.2% and 69.9%
IC50 (curve of compound): > 300 nM

CC(C)CC(NC(=O)C(Cc1ccccc1)NC(=O)c1cnccn1)B(O)O (stereo unspecified)
viability, T/C (compound 0.000949 µM): 98.5% and 113%
viability, T/C (compound 0.003 µM): 78.9% and 56.8%
viability, T/C (compound 0.00949 µM): 9.23% and 6.16%
viability, T/C (compound 0.03 µM): 0.73% and 1.24%
viability, T/C (compound 0.0949 µM): 0.59% and 0.71%
viability, T/C (compound 0.3 µM): 0.55% and 1.04%
IC50 (curve of compound): 4.84 nM and 3.5 nM

CCCS(=O)(=O)Nc1ccc(F)c(C(=O)c2c[nH]c3ncc(-c4ccc(Cl)cc4)cc23)c1F
viability, T/C (compound 0.0316 µM): 95.8% and 104%
viability, T/C (compound 0.1 µM): 87.2% and 87.3%
viability, T/C (compound 0.316 µM): 94.7% and 101%
viability, T/C (compound 1 µM): 103% and 110%
viability, T/C (compound 3.16 µM): 94.8% and 101%
viability, T/C (compound 10 µM): 77.8% and 67.8%
IC50 (curve of compound): > 10000 nM

CCN1CCN(Cc2ccc(Nc3ncc(F)c(-c4cc(F)c5nc(C)n(C(C)C)c5c4)n3)nc2)CC1
viability, T/C (compound 0.00316 µM): 93.4% and 99.5%
viability, T/C (compound 0.01 µM): 98.7% and 84%
viability, T/C (compound 0.0316 µM): 92.3% and 99.6%
viability, T/C (compound 0.1 µM): 91.2% and 96.8%
viability, T/C (compound 0.316 µM): 86.5% and 94.9%
viability, T/C (compound 1 µM): 86.9% and 95%
IC50 (curve of compound): > 1000 nM

CCc1c2c(nc3ccc(O)cc13)-c1cc3c(c(=O)n1C2)COC(=O)[C@]3(O)CC
viability, T/C (compound 0.00316 µM): 98.9% and 99.3%
viability, T/C (compound 0.01 µM): 81.9% and 72.3%
viability, T/C (compound 0.0316 µM): 60.8% and 61.9%
viability, T/C (compound 0.1 µM): 55.7% and 58.6%
viability, T/C (compound 0.316 µM): 45.8% and 50.8%
viability, T/C (compound 1 µM): 25.7% and 30.8%
IC50 (curve of compound): 135 nM and 165 nM

CN1CCN(c2cc(C(=O)Nc3cc4cc(-c5cnn(C)c5)ccc4cn3)ccn2)CC1
viability, T/C (compound 0.0316 µM): 102% [middle of 12 runs]
viability, T/C (compound 0.1 µM): 95.1% [middle of 12 runs]
viability, T/C (compound 0.316 µM): 71.7% [middle of 12 runs]
viability, T/C (compound 1 µM): 4.43% [middle of 11 runs]
viability, T/C (compound 3.16 µM): 1.12% [middle of 11 runs]
viability, T/C (compound 10 µM): 0.43% [middle of 9 runs]
IC50 (compound alone, run of 08/14/2023): 461 nM [middle of 10 runs]

CNC(=O)c1ccc(Nc2nc(OC3CCCC3)c3c(-c4ccc5nc(C)oc5c4)c[nH]c3n2)c(OC)c1
viability, T/C (compound 0.0316 µM): 120% [middle of 12 runs]
viability, T/C (compound 0.1 µM): 119% [middle of 12 runs]
viability, T/C (compound 0.316 µM): 78.9% [middle of 12 runs]
viability, T/C (compound 1 µM): 62.1% [middle of 12 runs]
viability, T/C (compound 3.16 µM): 61.1% [middle of 12 runs]
viability, T/C (compound 10 µM): 63.1% [middle of 12 runs]
IC50 (compound alone, run of 08/15/2023): > 10000 nM and 8190 nM

COC1C=CCC(C)C(C)S(=O)(=O)NC(=O)c2ccc3c(c2)N(CC2CCC21)CC1(CCCc2cc(Cl)ccc21)CO3 (stereo unspecified)
viability, T/C (compound 0.0316 µM): 101% and 104%
viability, T/C (compound 0.1 µM): 88.7% and 93.9%
viability, T/C (compound 0.316 µM): 93.5% and 97.9%
viability, T/C (compound 1 µM): 78.9% and 89.3%
viability, T/C (compound 3.16 µM): 64.2% and 59.8%
viability, T/C (compound 10 µM): 33.9% and 39%
IC50 (curve of compound): 5360 nM and 5440 nM

COc1c(OCCCN2CCOCC2)ccc2c3n(c(=NC(=O)c4cnc(N)nc4)nc12)CCN3
viability, T/C (compound 0.00316 µM): 87.7% and 97.2%
viability, T/C (compound 0.01 µM): 75.6% and 64.2%
viability, T/C (compound 0.0316 µM): 66.9% and 64.2%
viability, T/C (compound 0.1 µM): 45.9% and 46.1%
viability, T/C (compound 0.316 µM): 31.9% and 30.1%
viability, T/C (compound 1 µM): 20.4% and 22.4%
IC50 (curve of compound): 83.6 nM and 64.5 nM

Cn1ncnc1[C@H]1c2n[nH]c(=O)c3cc(F)cc(c23)N[C@@H]1c1ccc(F)cc1
viability, T/C (compound 0.000316 µM): 98% and 109%
viability, T/C (compound 0.001 µM): 90.6% and 97.8%
viability, T/C (compound 0.00316 µM): 107% and 108%
viability, T/C (compound 0.01 µM): 103% and 105%
viability, T/C (compound 0.0316 µM): 99% and 117%
viability, T/C (compound 0.1 µM): 85.3% and 95.5%
IC50 (curve of compound): > 100 nM

NC(=O)C(=Cn1cnc(-c2cc(C(F)(F)F)cc(C(F)(F)F)c2)n1)c1cncnc1
viability, T/C (compound 0.00949 µM): 83% and 87.8%
viability, T/C (compound 0.03 µM): 63% and 63.2%
viability, T/C (compound 0.0949 µM): 49.2% and 52.4%
viability, T/C (compound 0.3 µM): 28.8% and 28.9%
viability, T/C (compound 0.949 µM): 19.9% and 22.7%
viability, T/C (compound 3 µM): 18.5% and 21.2%
IC50 (curve of compound): 74.4 nM and 78.9 nM
